# In US7572765B2, “Conformationally constrained parathyroid hormone (PTH) analogs” (The General Hospital Corporation, priority 2001, dated 2009):
# Square brackets hold non-standard residues; d marks the D form. Peptide text beside a SMILES is read from it. hArg = N=C(N)NCCCC[C@H](N)C(=O)O; Aib = CC(C)(N)C(=O)O
# Test: Circular dichroism spectroscopy (helical content)
# Assay type: physicochemical
# Conditions: for [0]222obs × 10^−3, Phos. / [0]222obs × 10^−3, Phos + TFE: 20 μM peptide; for [0]222obs × 10^−3, Phos.: 50 mM phosphate buffer pH 7.4; for [0]222obs × 10^−3, Phos + TFE / helical residues (%), Phos + TFE: 50 mM phosphate buffer with trifluoroethanol (20%); for helical residues (%), Phos + TFE / helical residues (%), Phos.: from elipticity at 222 nM; for helical residues (%), Phos.: 50 mM phosphate buffer
# Method: Circular Dichroism. Circular Dichroism spectra were recorded on a Jasco model 710 spectropolarimeter; peptides were analyzed at a concentration of20 μM in 50 mM sodium phosphate buffer pH 7.4, or the same buffer containing 2,2,2-trifluoroethanol at 20% (v/v). Spectroscopic scans were preformed at 20° C. and at wavelengths between […], with data recored at each 1 nM interval. The spectral bandwidth was 1.5 nM and 8 scans were accumulated and averaged for each sample. At each wavelength, the mean residue elipticity [θ×100/l×C×n); where θ is the raw elipticity value (in dimensions of millidegree), l is the sample path length, C=is the molar peptide concentration, and n is the number of residues in the peptide (Bowen, W. P., and Jerman, J. C., Trends in Pharmacol. Sci. 16: 413-417 (1995)). The helical content of each peptide was estimated by dividing [θ] observed at 222 nM for that peptide by −28,100, which is the reported [θ]222obs for a model helical decapeptide (Bowen, W. P., and Jerman, J. C., Trends in Pharmacol. Sci. 16: 413-417 (1995)).
# Circular dichroism (CD) spectroscopy was used to analyze the potential effects that the Aib substitutions had on peptide secondary structure when the peptides were free in solution. Samples were analyzed in both aqueous phosphate buffer and in phosphate buffer containing 2,2,2-trifloroethanol, an organic solvent which promotes helical structure in oligopeptides, including PTH peptide fragments (Pellegrini, M., et al., J. Biol. Chem. 273:10420-10427 (1998); Gronwald, W., et al., Biol. Chem. Hoppe Seyler 377:175-186 (1996); Barden, J. A., and Kemp, B. E., Biochemistry 32:7126-7132 (1993)). In phosphate buffer, the helical content of each peptide, estimated from the elipticity observed at 222 nM, was small (≦16%); however, [Aib^1,3,M]PTH(1-14) contained nearly twice as much helix as did [M]PTH(1-14) (16% and 8.1% respectively), as did [Aib^1,3,M]PTH(1-1l), as compared to […] (13% and 7.5% respectively, Table 4). […] The higher helical contents of these two peptides were evident not only from the negative elipticities at […] and 222 nM, but also from the positive elipticities at 192 nM (FIG. 6).
Compound,"[0]222obs × 10^−3, Phos.","[0]222obs × 10^−3, Phos + TFE","helical residues (%), Phos + TFE","helical residues (%), Phos + TFE (M]PTH(1-10)) [%]","helical residues (%), Phos. [%]"
"H-AVSEIQLMHNLGKH-NH2 [PTH(1-14), reference compound]",−2.6,−10.6,38%,,9.1
"CC[C@H](C)[C@H](NC(=O)[C@H](CCC(=O)O)NC(=O)C(C)(C)NC(=O)[C@@H](NC(=O)C(C)(C)N)C(C)C)C(=O)N[C@@H](CCC(N)=O)C(=O)N[C@@H](CC(C)C)C(=O)N[C@@H](CCSC)C(=O)N[C@@H](Cc1c[nH]cn1)C(=O)N[C@@H](CCC(N)=O)C(=O)N[C@@H](CCCCNC(=N)N)C(N)=O [[Aib^1,3,M]PTH(1-11), AibValAibGluIleGlnLeuMetHisGlnHar] (H-[Aib]V[Aib]EIQLMHQ[hArg]-NH2)",−3.7,−16.1,57%,,13

# Continued, values first:
"[0]222obs × 10^−3, Phos.","[0]222obs × 10^−3, Phos + TFE","helical residues (%), Phos + TFE","helical residues (%), Phos + TFE (M]PTH(1-10)) [%]","helical residues (%), Phos. [%]",Compound
−3.2,−13.1,approximately 47%,47,11,"CC[C@H](C)[C@H](NC(=O)[C@H](CCC(=O)O)NC(=O)C(C)(C)NC(=O)[C@@H](NC(=O)C(C)(C)N)C(C)C)C(=O)N[C@@H](CCC(N)=O)C(=O)N[C@@H](CC(C)C)C(=O)N[C@@H](CCSC)C(=O)N[C@@H](Cc1c[nH]cn1)C(=O)N[C@@H](CCC(N)=O)C(N)=O [[Aib^1,3,M]PTH(1-10), [Aib^1,3,Gln^10]PTH(1-10)] (H-[Aib]V[Aib]EIQLMHQ-NH2)"
−4.6,−15.7,56%,,16,"CC[C@H](C)[C@H](NC(=O)[C@H](CCC(=O)O)NC(=O)C(C)(C)NC(=O)[C@@H](NC(=O)C(C)(C)N)C(C)C)C(=O)N[C@@H](CCC(N)=O)C(=O)N[C@@H](CC(C)C)C(=O)N[C@@H](CCSC)C(=O)N[C@@H](Cc1c[nH]cn1)C(=O)N[C@@H](CCC(N)=O)C(=O)N[C@@H](CCCCNC(=N)N)C(=O)N[C@@H](C)C(=O)N[C@@H](CCCCN)C(=O)N[C@@H](Cc1c[nH]c2ccccc12)C(N)=O [[Aib^1,3,M]PTH(1-14), AibValAibGluIleGlnLeuMetHisGlnHarAlaLysTrp] (H-[Aib]V[Aib]EIQLMHQ[hArg]AKW-NH2)"
−2.3,−11.9,42%,,8.1,"CC[C@H](C)[C@H](NC(=O)[C@H](CCC(=O)O)NC(=O)[C@H](C)NC(=O)[C@@H](NC(=O)[C@H](C)N)C(C)C)C(=O)N[C@@H](CCC(N)=O)C(=O)N[C@@H](CC(C)C)C(=O)N[C@@H](CCSC)C(=O)N[C@@H](Cc1c[nH]cn1)C(=O)N[C@@H](CCC(N)=O)C(=O)N[C@@H](CCCCNC(=N)N)C(=O)N[C@@H](C)C(=O)N[C@@H](CCCCN)C(=O)N[C@@H](Cc1c[nH]c2ccccc12)C(N)=O [[M]PTH(1-14), [Ala^3,12,Gln^10,Har^11,Trp^14]PTH(1-14)amide, reference compound] (H-AVAEIQLMHQ[hArg]AKW-NH2)"
